Data as given in patent publication US20150315241A1, “Antibiotic Peptides” (priority 2007, published 2015).
Values after ≈ are worked out from the molar mass of the structure shown. Where two headings read alike, the source gives them in different places. Where a SMILES comes first, the peptide text is derived from it. Where no end group is shown, it is not given here. [ ]: non-standard residue; d: D form. The star is where a group is joined. Orn(α-tetramethylguanidino) = CN(C)C(=N[C@@H](CCCN)C(=O)*)N(C)C; Hyp = O=C(O)[C@@H]1C[C@@H](O)CN1; hArg = N=C(N)NCCCC[C@H](N)C(=O)O; NMeL = CN[C@@H](CC(C)C)C(=O)O; Orn = NCCC[C@H](N)C(=O)O; For = O=C*

Assays:
K. pneumonia 681 = assay type: cell-based, Klebsiella pneumoniae
Method: (§1) The minimal inhibition concentrations (MIC) of the apidaecin-derived peptides and peptide-derivatives were determined by a growth inhibition assay using a serial peptide dilution in sterilized round-bottom 96-well plates (polystyrene, U-bottom, Greiner Bio-One GmbH) with a final volume of 100 μL per well. The bacteria, e.g., E. coli BL21 A1, were grown in nutrient broth (NB, Carl Roth GmbH+Co. KG, Karlsruhe, Germany) at 37° C. over night. To each well of the 96-well plate, 50 μL of the overnight culture adjusted to 5×10^6 CFU/mL in 1% TSB were added. Lyophilized peptides and peptidomimetics were dissolved in 1% TSB (tryptic soy broth) or water to give a final concentration of 250 μg/mL. Fifty μL of the peptide or peptidomimetics solution were added to the first well of a row on the plate and mixed. Fifty μL of the first well containing the peptide solution were transferred to the second well, mixed and again 50 μL transferred to the next well and so on. Thereby, a two-fold dilution series was obtained starting at 250 μg/mL in the first well down to 120 ng/mL in the 12th well of a row giving a final peptide or peptidomimetics concentration from 125 μg/mL (well 1) to 60 ng/mL (well 12). Plates were incubated at 37° C. for 20 hrs. The absorbance was measured at 595 nm using a TECAN micro plate spectrophotometer (Tecan, Germany). All peptides and peptidomimetics were measured in triplicates. Sterilized water was used as a negative control.
(§2) The bacteria strains were tested: • Eschericha coli 1103, 10233, BL 21 AI, DC 2, • Klebsiella pneumoniae 681, • Micrococcus luteus ATCC 10240, • Mycobacterium vaccae • Bactillus subtillis 347.

B. subtilis 347 = assay type: cell-based, Bactillus subtillis
Method: as §1, §2

S. typhi S5 = assay type: cell-based, Salmonella typhi
Method in brief: (§3)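 Peptides were serially diluted two-fold in 1% TSB to give final concentrations from 125 μg/mL to 60 ng/mL. Bacteria grown overnight in nutrient broth at 37° C. were added at 5×10^6 CFU/mL. Plates were incubated 20 hrs at 37° C. and absorbance at 595 nm recorded.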

[1] = tested on: S. enterica subsp. Enterica serovar. typhi G10215 ATCC 700408; assay type: cell-based, Salmonella enterica
Method in brief: as §3

E. coli BL 21 AI = experiment: Growth inhibition assay (MIC); assay type: cell-based, Escherichia coli; details: 1% TSB, 37° C., 20 hrs
Method in brief: (§4)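 Bacteria grown overnight in NB at 37° C. were adjusted to 5×10^6 CFU/mL in 1% TSB and mixed 1:1 with a two-fold peptide series (final 125 μg/mL–60 ng/mL). After 20 hrs at 37° C., A595 was read; triplicates.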

E. coli 45849 = experiment: Growth inhibition assay (MIC); assay type: cell-based, Escherichia coli; details: multidrug resistant strain; 1% TSB, 37° C., 20 hrs
Method in brief: as §3

M. luteus ATCC 10240 = assay type: cell-based, Micrococcus luteus
Method in brief: as §4

E. coli 10233 = assay type: cell-based, Escherichia coli
Method: as §1, §2

[2] = tested on: K. Pneumonia K6, ATCC 700603; experiment: Growth inhibition assay (MIC); assay type: cell-based, Klebsiella pneumoniae; details: multidrug resistant strain; 1% TSB, 37° C., 20 hrs
Method in brief: as §3

K. Pneumonia 123132 = experiment: Growth inhibition assay (MIC); assay type: cell-based, Klebsiella pneumoniae; details: multidrug resistant strain; 1% TSB, 37° C., 20 hrs
Method in brief: as §3

E. coli D31 = assay type: cell-based, Escherichia coli
Method in brief: as §3

E. coli 1103 = assay type: cell-based, Escherichia coli
Method: as §1, §2

[3] = tested on: R. radiobatter ATCC 15955; experiment: Growth inhibition assay (MIC); assay type: cell-based, Rhizobium radiobacter; details: multidrug resistant strain; 1% TSB, 37° C., 20 hrs
Method in brief: as §3

in vitro = in vitro ADME, mouse; details: 25% aqueous mouse serum, 37° C.; read-out: Half-life time
Method: Serum stability studies were carried out in duplicate as described by Hoffmann et al.. Briefly, 28 μL of an aqueous peptide or peptidomimetics solution (0.5 mg/mL) was added to 0.2 mL freshly pooled 25% mouse serum (Sigma-Aldrich GmbH, Taufkirchen, Germany) in water. The mixtures were incubated at 37° C. under gentle stirring. The proteins were precipitated with 40 μL of 15% aqueous TCA after incubation times of 0, 0.5, 1, 2, 4 and 6 h at 0° C. for 20 min before centrifuged (13500×G) at 4° C. for 5 min. The supernatants of all samples (240 μL) were neutralized with 1 mol/L aqueous NaOH and immediately stored at −20° C. The supernatants were analyzed by RP-HPLC using a linear acetonitrile gradient as described above with 0.1% TFA as ion pair reagent. Collected fractions of the main peaks were further analyzed by tandem mass spectrometry (MALDI-TOF/TOF-MS, 4700 Proteomics Analyzer, Applied Biosystems GmbH, Weiterstadt, Germany) in positive ion reflector mode using α-cyanohydroxycinnamic acid (50% CH3CN in 0.1% aqueous TFA) as matrix to identify the degradation products of the peptides and peptidomimetics, i.e., metabolites, at the different time points. Serum control samples consisted of 200 μL of pooled 25% mouse serum in water, which were also precipitated with 40 μL 15% aqueous TCA, as described before. Peptide reference samples consisted of 28 μL of the peptide stock solution diluted in 0.2 mL water and 40 μL of 15% aqueous trichloroacetic acid (TCA).

[4] = multidrug resistant strain, 1% TSB, 37° C., 20 hrs

Row | Compound | MIC E. coli BL 21 AI (E. coli BL 21 AI) | MIC E. coli 45849 (E. coli 45849) | MIC K. Pneumonia K6, ATCC 700603 [2] | MIC K. Pneumonia 123132 (K. Pneumonia 123132) | MIC K. pneumonia 681 (K. pneumonia 681; 20 h) | MIC B. subtilis 347 (B. subtilis 347; 347, 20 h) | MIC S. enterica subsp. Enterica serovar. typhi G10215 ATCC 700408 ([1]; ATCC 700408, 20 h) | MIC M. luteus ATCC 10240 (M. luteus ATCC 10240; ATCC 10240, 20 h) | MIC E. coli 1103 (E. coli 1103; 1103, 20 h) | MIC E. coli 10233 (E. coli 10233; 10233, 20 h) | MIC E. coli D31 (E. coli D31; D31, 20 h) | MIC S. typhi S5 (S. typhi S5; S5, 20 h) | also measured
1 | 85 (GNNRPVYIPQPRPPHPRL) [compound 85] | 0.24 µg/mL | 2 µg/mL | 64 µg/mL | 16 µg/mL |  |  |  |  |  |  |  |  | MIC K. pneumonia 681 (K. pneumonia 681; 1% TSB, 37° C., 20 hrs): 31.25 µg/mL; MIC B. subtilis 347 (B. subtilis 347; 1% TSB, 37° C., 20 hrs): >125 µg/mL; MIC S. typhi S5 (S. typhi S5; [4]): 0.5 µg/mL; MIC S. enterica subsp. Enterica serovar. typhi G10215 ATCC 700408 [1, 4]: 0.5 µg/mL; MIC M. luteus ATCC 10240 (M. luteus ATCC 10240; 1% TSB, 37° C., 20 hrs): 15.63 µg/mL; MIC E. coli 10233 (E. coli 10233; 1% TSB, 37° C., 20 hrs): 1.95 µg/mL; MIC E. coli D31 (E. coli D31; [4]): 16 µg/mL
2 | 135 (PEG3000-[Orn]NNRPVYIPRPRPPHPRL-NH2) [compound 135] | >125 µg/mL |  |  |  |  |  |  |  |  |  |  |  | MIC K. pneumonia 681 (K. pneumonia 681; 1% TSB, 37° C., 20 hrs): >125 µg/mL; MIC B. subtilis 347 (B. subtilis 347; 1% TSB, 37° C., 20 hrs): >125 µg/mL; MIC M. luteus ATCC 10240 (M. luteus ATCC 10240; 1% TSB, 37° C., 20 hrs): 8 µg/mL; MIC E. coli 1103 (E. coli 1103; 1% TSB, 37° C., 20 hrs): >125 µg/mL; MIC E. coli 10233 (E. coli 10233; 1% TSB, 37° C., 20 hrs): >125 µg/mL
3 | CC[C@H](C)[C@H](NC(=O)[C@H](Cc1ccc(O)cc1)NC(=O)[C@@H](NC(=O)[C@@H]1CCCN1C(=O)[C@H](CCCNC(=N)N)NC(=O)[C@H](CC(N)=O)NC(=O)[C@H](CC(N)=O)NC(=O)CN)C(C)C)C(=O)N1CCC[C@H]1C(=O)N[C@@H](CCC(N)=O)C(=O)N1CCC[C@H]1C(=O)N[C@@H](CCCNC(=N)N)C(=O)N1CCC[C@H]1C(=O)N1CCC[C@H]1C(=O)N[C@@H](Cc1c[nH]cn1)C(=O)N1CCC[C@H]1C(=O)N[C@@H](CCCNC(=N)N)C(=O)N(C)[C@@H](CC(C)C)C(N)=O [compound 33] (H-GNNRPVYIPQPRPPHPR[NMeL]-NH2) | 15.63 µg/mL (≈ 7.37 µM) |  | >128 µg/mL |  | >125 µg/mL | >125 µg/mL | 8 µg/mL (≈ 3.77 µM) | 31.25 µg/mL (≈ 14.7 µM) | 62.5 µg/mL (≈ 29.5 µM) | 15.63 µg/mL (≈ 7.37 µM) | 32 µg/mL (≈ 15.1 µM) |  | 
4 | CC[C@H](C)[C@H](NC(=O)[C@H](Cc1ccc(O)cc1)NC(=O)[C@@H](NC(=O)[C@@H]1CCCN1C(=O)[C@H](CCCNC(=N)N)NC(=O)[C@H](CC(N)=O)NC(=O)[C@H](CC(N)=O)NC(=O)[C@H](CCCN)NC(C)=O)C(C)C)C(=O)N1CCC[C@H]1C(=O)N[C@@H](CCCNC(=N)N)C(=O)N1C[C@H](O)C[C@H]1C(=O)N[C@@H](CCCNC(=N)N)C(=O)N1CCC[C@H]1C(=O)N1CCC[C@H]1C(=O)N[C@@H](Cc1c[nH]cn1)C(=O)N1CCC[C@H]1C(=O)N[C@@H](CCCNC(=N)N)C(=O)N[C@@H](CC(C)C)C(N)=O [compound 40] (Ac-[Orn]NNRPVYIPR[Hyp]RPPHPRL-NH2) |  | 1 µg/mL (≈ 0.444 µM) | 16 µg/mL (≈ 7.11 µM) | 4 µg/mL (≈ 1.78 µM) | 3.91 µg/mL (≈ 1.74 µM) | 125 µg/mL (≈ 55.5 µM) | 4 µg/mL (≈ 1.78 µM) |  | 3.91 µg/mL (≈ 1.74 µM) | 1.95 µg/mL (≈ 0.866 µM) | 8 µg/mL (≈ 3.55 µM) | <0.5 µg/mL | MIC R. radiobatter ATCC 15955 [3]: 0.33 µg/mL (≈ 0.147 µM)
5 | CC[C@H](C)[C@H](NC(=O)[C@H](Cc1ccc(O)cc1)NC(=O)[C@@H](NC(=O)[C@@H]1CCCN1C(=O)[C@H](CCCNC(=N)N)NC(=O)[C@H](CC(N)=O)NC(=O)[C@H](CC(N)=O)NC(=O)CNC=O)C(C)C)C(=O)N1CCC[C@H]1C(=O)N[C@@H](CCC(N)=O)C(=O)N1CCC[C@H]1C(=O)N[C@@H](CCCNC(=N)N)C(=O)N1CCC[C@H]1C(=O)N1CCC[C@H]1C(=O)N[C@@H](Cc1c[nH]cn1)C(=O)N1CCC[C@H]1C(=O)N[C@@H](CCCNC(=N)N)C(=O)N[C@@H](CC(C)C)C(N)=O [compound 84] (For-GNNRPVYIPQPRPPHPRL-NH2) | 1.95 µg/mL (≈ 0.913 µM) | 0.5 µg/mL (≈ 0.234 µM) | 32 µg/mL (≈ 15 µM) | 32 µg/mL (≈ 15 µM) | 62.5 µg/mL (≈ 29.3 µM) | >125 µg/mL | 0.25 µg/mL (≈ 0.117 µM) | 3.91 µg/mL (≈ 1.83 µM) |  | 1.95 µg/mL (≈ 0.913 µM) | 1 µg/mL (≈ 0.468 µM) | 0.25 µg/mL (≈ 0.117 µM) | 
6 | CC[C@H](C)[C@H](NC(=O)[C@H](Cc1ccc(O)cc1)NC(=O)[C@@H](NC(=O)[C@@H]1CCCN1C(=O)[C@H](CCCNC(=N)N)NC(=O)[C@H](CC(N)=O)NC(=O)[C@H](CC(N)=O)NC(=O)[C@H](CCCN)N=C(N(C)C)N(C)C)C(C)C)C(=O)N1CCC[C@H]1C(=O)N[C@@H](CCCNC(=N)N)C(=O)N1CCC[C@H]1C(=O)N[C@@H](CCCNC(=N)N)C(=O)N1CCC[C@H]1C(=O)N1CCC[C@H]1C(=O)N[C@@H](Cc1c[nH]cn1)C(=O)N1CCC[C@H]1C(=O)N[C@@H](CCCCNC(=N)N)C(=O)N[C@@H](CC(C)C)C(N)=O [compound 155] ({Orn(α-tetramethylguanidino)}-NNRPVYIPRPRPPHP[hArg]L-NH2) | 4 µg/mL (≈ 1.74 µM) | 4 µg/mL (≈ 1.74 µM) | 4 µg/mL (≈ 1.74 µM) | 2 µg/mL (≈ 0.868 µM) | 4 µg/mL (≈ 1.74 µM) | 32 µg/mL (≈ 13.9 µM) | 0.5 µg/mL (≈ 0.217 µM) | 1 µg/mL (≈ 0.434 µM) | 4 µg/mL (≈ 1.74 µM) |  | 4 µg/mL (≈ 1.74 µM) | 4 µg/mL (≈ 1.74 µM) | half-life (in vitro): > 6 h
7 | GNNRPVYIPQPRPPHPRL [compound 2] | 0.98 µg/mL |  | 64 µg/mL |  | 62.5 µg/mL | >125 µg/mL | 2 µg/mL | 31.25 µg/mL | 7.81 µg/mL | 1.95 µg/mL | 32 µg/mL |  | 
8 | H-LRPHPPRPQPIYVPRNNG-NH2 [compound 141] | >125 µg/mL |  |  |  | >125 µg/mL | >125 µg/mL |  | >125 µg/mL | >125 µg/mL | >125 µg/mL |  |  | 
